Measurements taken from patent publication US11421145B2, “Oil recovery methods using a formulation containing an unsaturated zwitterionic surfactant and a polymer” (King Fahd University of Petroleum and Minerals, priority 2019, dated 2022).

Assays:
[1] = Surface tension by pendant-drop technique (CMC and surface properties); assay type: physicochemical
Method: The surface tension of the unsaturated surfactant in SW and FW at different temperatures was analyzed using a Biolin Scientific Attension instrument. The pendant-drop technique was used to measure the surface tension at 30° C. and 60° C. Other surface properties such as CMC, surface tension at CMC (γcmc), surfactant ability at lower surface tension (πcmc), maximum surface access (Γmax), and minimum area per molecule (Amin) were also obtained from the surface tension data. These surface properties were calculated using Eqs. 1-3,
(§1) where γ0 is the surface tension of the brine (FW or SW), NA is the Avogadro number, dγ/dlnC is the slope below CMC in the surface tension plot, C is the surfactant concentration in brine, T is temperature, R is the gas constant, and n=1 for zwitterionic surfactants [Wang, Y., Zhang, Y., Liu, X., Wang, J., Wei, L., & Feng, Y. (2014) Effect of a hydrophilic head group on Krafft temperature, surface activities and rheological behaviors of Erucyl Amidobetaines. Journal of Surfactants and Detergents, 17:295-301—incorporated herein by reference]. The interfacial tension between crude oil and water was measured using a spinning drop tensiometer from Kruss (SITE 100). All the reported points are the average equilibrium values.
Variations in the surface tension of the unsaturated surfactant with concentration at different temperatures and salinities are summarized in FIG. 7. […] The CMC and surface tension corresponding to the CMC (γcmc) were estimated from the breakpoint in surface tension versus concentration plots. […] A similar reduction in CMC with increasing NaCl concentration was reported for the alkyl amidosulfobetaine surfactant [Feng, Y., & Chu, Z. (2016) Correlating surface activity with structural and environmental parameters for alkylamidosulfobetaine surfactants. Colloid and Polymer Science, 294:957-963, incorporated herein by reference in its entirety]. However, in this disclosure, the reduction in the CMC was observed when SW was replaced with FW. The reduction in the CMC could be associated with the salting-out effect of the unsaturated surfactant hydrophobic tail, which got enhanced by increasing the salinity [Feng, Y., & Chu, Z. (2016) Correlating surface activity with structural and environmental parameters for alkylamidosulfobetaine surfactants. Colloid and Polymer Science, 294:957-963, incorporated herein by reference in its entirety].

[2] = Interfacial tension between crude oil and water, spinning drop tensiometer; assay type: physicochemical; settings: for IFT after aging: after aging at 90° C. for 2 weeks
Source text: API gravity and molecular weight of the oil were 30 and 251 g mol^−1, respectively.
as §1
Interfacial tension is one of the main parameters to assess the performance of surfactants for EOR application. Interfacial tension depends on several parameters such as the nature of the crude oil, salinity, temperature, pH, surfactant type and its molecular structure, surfactant concentration, and residence time of the surfactant inside the reservoir. […] The spinning drop tensiometer can measure ultra-low IFT down to 10^−4 mN m^−1 at various temperatures. This equipment could go up to 90° C., but it was difficult to get a stable drop due to bubble formation, therefore the IFT calculated at 90° C. might not be an accurate representation. Therefore, measuring IFT at high temperature was avoided and another strategy was adopted. Specifically, several solutions at field conditions (90° C.) were aged for 2 weeks and then their IFT was compared with that of the original solution. The water/oil IFT was initially >9 mN m^1 in both FW and SW. […] The low CMC is advantageous because the same IFT reduction can be achieved at a very low surfactant concentration. In addition, IFT will not change considerably because of surfactant adsorption. In general, no considerable change in IFT was detected within the investigated temperatures and salinities. […] Canadian Journal of Chemical Engineering, 94:454-460; and Li, P., Yang, C., Cui, Z., Song, B., Jiang, J., & Wang, Z. (2016) A new type of sulfobetaine surfactant with double alkyl polyoxyethylene ether chains for enhanced oil recovery. Journal of Surfactants and Detergents, 19:967-977, each incorporated herein by reference in their entirety]. […] Journal of Surfactants and Detergents, 20:777-788; and Hussain, S. S., Kamal, M. S., & Sultan, A. S. (2017) Amido-amine-based cationic Gemini surfactants: Thermal and interfacial properties and interactions with cationic polyacrylamide. Journal of Surfactants and Detergents, 20:47-55, each incorporated herein by reference in their entirety].

[3] = 0.02 wt. % surfactant, FW, 60° C.
[4] = 0.02 wt. % surfactant, SW, 30° C.
[5] = 0.05 wt. % surfactant, FW, 60° C.
[6] = 0.05 wt. % surfactant, SW, 30° C.

Q: Which Amin ([1]; FW, 60 °C) does the source give for `CCCCCCCC/C=C\CCCCCCCC(=O)NCCC[N+](C)(C)CCCS(=O)(=O)[O-]` [unsaturated surfactant, 3-(N-oleamidopropyl-N,N-dimethylammonium) propane sulfonate] here?
A: 0.28 nm^2

Q: What about the CMC ([1]; FW, 60 °C) of the same compound?
A: 1.53 × × 10^−4 mol L^−1

Q: And the “Γmax × 10^6” value ([1]; FW, 60 °C)?
A: 5.88 mol m^−2

Q: And the γcmc ([1]; FW, 60 °C)?
A: 33.55 mN m^−1

Q: What about the πcmc ([1]; FW, 60 °C) of the same compound?
A: 38.04 mN m^−1

Q: And the Amin ([1]; SW, 30 °C)?
A: 0.22 nm^2

Q: And the CMC ([1]; SW, 30 °C)?
A: 1.02 × × 10^−4 mol L^−1

Q: What about the “Γmax × 10^6” value ([1]; SW, 30 °C) of the same compound?
A: 7.27 mol m^−2

Q: What about the γcmc ([1]; SW, 30 °C) of the same compound?
A: 30.23 mN m^−1

Q: And the πcmc ([1]; SW, 30 °C)?
A: 41.76 mN m^−1

Q: What about the Amin ([1]; SW, 60 °C) of the same compound?
A: 0.29 nm^2

Q: What about the CMC ([1]; SW, 60 °C) of the same compound?
A: 2.05 × × 10^−4 mol L^−1

Q: And the “Γmax × 10^6” value ([1]; SW, 60 °C)?
A: 5.60 mol m^−2

Q: And the γcmc ([1]; SW, 60 °C)?
A: 31.03 mN m^−1

Q: And the πcmc ([1]; SW, 60 °C)?
A: 40.96 mN m^−1

Q: And the “CMC expressed as surfactant concentration” value ([1]; corresponding to 1.02×10^−4 mol L^−1)?
A: 0.005%

Q: What about the CMC ([1]; in FW (summary b150)) of the same compound?
A: 0.000205 mol/L

Q: What about the CMC ([1]; in SW (summary b150)) of the same compound?
A: 0.000102 mol/L

Q: And the CMC ([1]; in SW and FW (as worded))?
A: 0.000102 mol/L

Q: What about the IFT ([2]; 0.01 wt. % surfactant, FW, 60° C.) of the same compound?
A: 0.33 mN m^−1

Q: And the IFT ([2]; 0.01 wt. % surfactant, SW, 30° C.)?
A: 0.31 mN m^−1

Q: What about the IFT ([2]; 0.01 wt. % surfactant, SW, 60° C.) of the same compound?
A: 0.36 mN m^−1

Q: And the IFT [2, 3]?
A: 0.25 mN m^−1

Q: What about the IFT after aging [2, 3] of the same compound?
A: 0.27 mN m^−1

Q: What about the IFT [2, 4] of the same compound?
A: 0.21 mN m^−1

Q: And the IFT after aging [2, 4]?
A: 0.29 mN m^−1

Q: What about the IFT ([2]; 0.02 wt. % surfactant, SW, 60° C.) of the same compound?
A: 0.27 mN m^−1

Q: And the IFT [2, 5]?
A: 0.23 mN m^−1

Q: What about the IFT after aging [2, 5] of the same compound?
A: 0.26 mN m^−1

Q: What about the IFT [2, 6] of the same compound?
A: 0.25 mN m^−1

Q: What about the IFT after aging [2, 6] of the same compound?
A: 0.29 mN m^−1

Q: And the IFT ([2]; 0.05 wt. % surfactant, SW, 60° C.)?
A: 0.31 mN m^−1

Q: What about the IFT ([2]; 0.075 wt. % surfactant, FW, 60° C.) of the same compound?
A: 0.24 mN m^−1

Q: And the IFT ([2]; 0.075 wt. % surfactant, SW, 30° C.)?
A: 0.21 mN m^−1

Q: What about the IFT ([2]; 0.075 wt. % surfactant, SW, 60° C.) of the same compound?
A: 0.30 mN m^−1

Q: And the IFT ([2]; 0.1 wt. % surfactant, FW, 60° C.)?
A: 0.28 mN m^−1

Q: And the IFT ([2]; 0.1 wt. % surfactant, SW, 30° C.)?
A: 0.22 mN m^−1

Q: And the IFT ([2]; 0.1 wt. % surfactant, SW, 60° C.)?
A: 0.31 mN m^−1

Q: And the IFT ([2]; 0.2 wt. % surfactant, FW, 60° C.)?
A: 0.27 mN m^−1

Q: And the IFT ([2]; 0.2 wt. % surfactant, SW, 30° C.)?
A: 0.23 mN m^−1

Q: And the IFT ([2]; 0.2 wt. % surfactant, SW, 60° C.)?
A: 0.32 mN m^−1

Q: And the “decrease in water/oil IFT on addition of surfactant” value ([2]; FW and SW, initial IFT >9)?
A: almost two orders of magnitude

Q: What about the “oil/water IFT, order of magnitude” value ([2]; not affected much by temperature and salinity) of the same compound?
A: ~10^−1 mN m^−1

Q: And the “change of water/oil IFT after aging” value ([2]; solutions aged at 90° C. for 2 weeks)?
A: did not change
